Assay results as given in patent publication US8389513B2, “2-amino-5,5-difluoro-5,6-dihydro-4H-[1,3]oxazin-4-yl)-phenyl]-amides” (Hoffmann-La Roche Inc., priority 2009, dated 2013).
pIC50: −log10 of the molar value.

Key:
hERG channel = biological target: T1, hERG channel (Homo sapiens, UniProt Q12809); assay: PatchXpress hERG inhibition assay; format: cell-based; conditions: % inhibition @ 1 μM
T1 construct: expressed in transfected cells; host or cells: CHO
Description: PatchXpress hERG Inhibition Assay
For patch clamp electrophysiology, the external buffer contained (in mM): 150 NaCl, 10 Hepes, 4 KCl, 1.2 CaCl2, 1 MgCl2, pH 7.4 adjusted with […] and the internal recording solution contained (in mM): 140 KCl, 6 EGTA, 5 Hepes, MgCl2, 5 ATP-Na2, pH 7.2 adjusted with KOH. Once the cell was loaded in the recording chamber and formed a giga ohm seal with the planar glass electrodes (Sealchip™), a whole-cell configuration was achieved by rupturing the cell membrane. The membrane potential was then clamped at −80 mV and the hERG channel activated by a 1-second depolarizing pulse delivered at 0.1 Hz, the hERG current was measured during the 500 ms-repolarizing pulse to −40 mV. […] The inhibition of hERG current at each concentration was normalized to that recorded in the vehicle control, and fitted with Hill equation to calculate IC20 and/or IC50.

P-gP = P-gP (Homo sapiens, UniProt P08183); assay: P-gP human efflux ratio; format: in vitro ADME; parameters: key: A = not or weak substrate
Chain of P-gP (P08183 whole entry): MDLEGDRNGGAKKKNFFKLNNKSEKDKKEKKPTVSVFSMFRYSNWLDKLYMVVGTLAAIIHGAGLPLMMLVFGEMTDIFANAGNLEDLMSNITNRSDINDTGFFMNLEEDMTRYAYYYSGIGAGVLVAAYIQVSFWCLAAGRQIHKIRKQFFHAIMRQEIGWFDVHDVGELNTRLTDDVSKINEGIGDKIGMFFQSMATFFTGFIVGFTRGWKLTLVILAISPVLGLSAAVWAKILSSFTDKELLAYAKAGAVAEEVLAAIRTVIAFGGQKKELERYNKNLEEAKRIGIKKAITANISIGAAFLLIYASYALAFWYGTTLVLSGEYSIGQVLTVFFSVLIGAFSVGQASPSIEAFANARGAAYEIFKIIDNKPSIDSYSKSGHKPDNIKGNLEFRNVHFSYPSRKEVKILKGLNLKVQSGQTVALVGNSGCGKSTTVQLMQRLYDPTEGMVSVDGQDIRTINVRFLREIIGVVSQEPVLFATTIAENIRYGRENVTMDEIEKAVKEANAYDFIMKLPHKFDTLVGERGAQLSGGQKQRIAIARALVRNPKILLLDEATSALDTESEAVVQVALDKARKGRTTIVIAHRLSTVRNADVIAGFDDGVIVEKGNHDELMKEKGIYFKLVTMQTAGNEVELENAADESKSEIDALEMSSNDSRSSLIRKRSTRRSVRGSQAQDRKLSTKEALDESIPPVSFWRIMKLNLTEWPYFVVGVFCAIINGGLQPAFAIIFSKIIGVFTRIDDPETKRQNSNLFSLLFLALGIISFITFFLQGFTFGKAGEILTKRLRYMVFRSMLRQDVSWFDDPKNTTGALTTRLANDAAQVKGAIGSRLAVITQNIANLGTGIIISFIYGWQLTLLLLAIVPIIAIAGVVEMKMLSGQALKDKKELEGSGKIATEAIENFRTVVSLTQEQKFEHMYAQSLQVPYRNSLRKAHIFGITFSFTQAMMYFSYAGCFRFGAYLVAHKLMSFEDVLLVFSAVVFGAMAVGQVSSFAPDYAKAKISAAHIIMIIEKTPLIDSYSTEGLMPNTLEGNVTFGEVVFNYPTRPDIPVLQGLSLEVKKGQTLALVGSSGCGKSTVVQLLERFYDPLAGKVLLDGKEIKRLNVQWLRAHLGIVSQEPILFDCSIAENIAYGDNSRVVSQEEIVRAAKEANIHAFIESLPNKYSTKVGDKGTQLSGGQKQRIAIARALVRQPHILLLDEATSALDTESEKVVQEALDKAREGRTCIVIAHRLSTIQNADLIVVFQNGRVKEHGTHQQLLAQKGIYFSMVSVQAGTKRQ

[1] = GSH human adduct formation in vitro; format: in vitro ADME; parameters: key: NF = in vitro no significant adduct formation relative to control; conditions: relative to control
BACE1 = biological target: T2, BACE1 (Homo sapiens, UniProt P56817); assay: Cellular Aβ-lowering assay (Aβ40 ELISA); format: cell-based; conditions: HEK293 cells stably expressing human APP695; Aβ40 in culture supernatant; read-out: BACE1 cell act. Aβ40 IC50
T2 construct: Human HEK293 cells which are stably transfected with a vector expressing a cDNA of the human APP wt gene (APP695); endogenous in cells; host or cells: HEK293 stably transfected with human APP695 wt
T2 sequence (P56817 46-501): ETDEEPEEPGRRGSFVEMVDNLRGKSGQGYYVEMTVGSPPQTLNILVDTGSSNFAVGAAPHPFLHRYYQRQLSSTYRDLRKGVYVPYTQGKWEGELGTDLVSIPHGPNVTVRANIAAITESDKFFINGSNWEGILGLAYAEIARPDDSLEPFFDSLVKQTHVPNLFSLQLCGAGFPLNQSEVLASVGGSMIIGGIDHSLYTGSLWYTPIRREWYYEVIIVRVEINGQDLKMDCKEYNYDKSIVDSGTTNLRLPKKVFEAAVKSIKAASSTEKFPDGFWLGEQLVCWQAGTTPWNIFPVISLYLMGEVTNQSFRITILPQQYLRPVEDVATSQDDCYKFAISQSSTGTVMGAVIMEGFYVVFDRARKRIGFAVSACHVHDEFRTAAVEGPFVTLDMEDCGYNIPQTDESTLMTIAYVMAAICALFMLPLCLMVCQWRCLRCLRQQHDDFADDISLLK
In short: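 Aβ40 in supernatant measured by sandwich ELISA (TMB, 450 nm) and quantified against a pure Aβ peptide standard curve.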

T1 sequence (Q12809 whole entry): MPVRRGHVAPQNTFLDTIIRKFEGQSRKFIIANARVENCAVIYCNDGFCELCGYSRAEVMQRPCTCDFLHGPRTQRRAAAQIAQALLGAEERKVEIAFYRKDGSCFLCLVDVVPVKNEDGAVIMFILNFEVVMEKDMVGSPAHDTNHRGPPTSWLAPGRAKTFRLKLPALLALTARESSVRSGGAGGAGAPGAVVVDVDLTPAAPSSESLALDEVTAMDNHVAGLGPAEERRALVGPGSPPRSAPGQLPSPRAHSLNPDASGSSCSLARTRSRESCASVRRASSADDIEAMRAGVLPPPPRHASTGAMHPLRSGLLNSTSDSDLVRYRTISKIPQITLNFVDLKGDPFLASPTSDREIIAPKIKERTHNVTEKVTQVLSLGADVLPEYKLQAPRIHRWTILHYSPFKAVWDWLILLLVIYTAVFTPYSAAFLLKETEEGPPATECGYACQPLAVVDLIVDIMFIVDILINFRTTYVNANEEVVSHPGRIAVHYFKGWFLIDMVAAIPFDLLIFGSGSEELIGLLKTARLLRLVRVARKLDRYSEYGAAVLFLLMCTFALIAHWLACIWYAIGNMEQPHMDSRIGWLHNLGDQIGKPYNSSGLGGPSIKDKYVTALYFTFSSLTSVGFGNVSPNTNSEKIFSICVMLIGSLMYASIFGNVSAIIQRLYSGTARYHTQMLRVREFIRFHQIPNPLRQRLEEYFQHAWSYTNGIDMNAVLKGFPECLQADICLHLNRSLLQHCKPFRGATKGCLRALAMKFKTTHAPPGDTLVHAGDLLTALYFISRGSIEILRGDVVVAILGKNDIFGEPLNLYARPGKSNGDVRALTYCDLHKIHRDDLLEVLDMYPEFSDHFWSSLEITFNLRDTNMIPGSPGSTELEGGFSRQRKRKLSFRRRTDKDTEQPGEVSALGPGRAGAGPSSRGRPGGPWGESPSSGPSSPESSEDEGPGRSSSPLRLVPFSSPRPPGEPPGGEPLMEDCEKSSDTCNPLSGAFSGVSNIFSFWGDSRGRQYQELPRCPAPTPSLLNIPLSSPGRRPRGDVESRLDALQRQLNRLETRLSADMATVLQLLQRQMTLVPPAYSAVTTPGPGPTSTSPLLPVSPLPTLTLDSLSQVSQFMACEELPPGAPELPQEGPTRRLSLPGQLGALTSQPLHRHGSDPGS

SMILES	P-gP human, efflux ratio: substrate category (P-gP)	GSH human, adduct formation [1]	pIC50 (BACE1)	hERG (hERG channel)
C[C@]1(c2cc(NC(=O)c3ccc(Cl)cn3)ccc2F)N=C(N)OCC1(F)F [Example 1, 5-Chloro-pyridine-2-carboxylic acid [3-((R)-2-amino-5,5-difluoro-4-methyl-5,6-dihydro-4H-[1,3]oxazin-4-yl)-4-fluoro-phenyl]-amide]				A (A = less than 26% inhibition @ 1 μM)
C[C@]1(c2cc(NC(=O)c3ncc(C(F)(F)F)cc3Cl)ccc2F)N=C(N)OCC1(F)F [Example 5, 3-Chloro-5-trifluoromethyl-pyridine-2-carboxylic acid [3-((R)-2-amino-5,5-difluoro-4-methyl-5,6-dihydro-4H-[1,3]oxazin-4-yl)-4-fluoro-phenyl]-amide]	A	NF	7.37	A (A = less than 26% inhibition @ 1 μM)
C[C@]1(c2cc(NC(=O)c3ncc(Cl)cc3Cl)ccc2F)N=C(N)OCC1(F)F [Example 8, 3,5-Dichloro-pyridine-2-carboxylic acid [3-((R)-2-amino-5,5-difluoro-4-methyl-5,6-dihydro-4H-[1,3]oxazin-4-yl)-4-fluoro-phenyl]-amide]			7.82	A (A = less than 26% inhibition @ 1 μM)

The next lines start with results.

P-gP human, efflux ratio: substrate category (P-gP)	GSH human, adduct formation [1]	pIC50 (BACE1)	SMILES	hERG (hERG channel)
A		7.30	CC1(C)OC(N)=N[C@](C)(c2cc(NC(=O)c3ncc(C(F)(F)F)cc3Cl)ccc2F)C1(F)F [Example 20, 3-Chloro-5-trifluoromethyl-pyridine-2-carboxylic acid [3-((R)-2-amino-5,5-difluoro-4,6,6-trimethyl-5,6-dihydro-4H-[1,3]oxazin-4-yl)-4-fluoro-phenyl]-amide]	A (A = less than 26% inhibition @ 1 μM)
A		8.15	CC1(C)OC(N)=N[C@](C)(c2cc(NC(=O)c3ccc(C#N)cn3)ccc2F)C1(F)F [Example 21, 5-Cyano-pyridine-2-carboxylic acid [3-((R)-2-amino-5,5-difluoro-4,6,6-trimethyl-5,6-dihydro-4H-[1,3]oxazin-4-yl)-4-fluoro-phenyl]-amide]	
		8.15	CC1(C)OC(N)=N[C@](C)(c2cc(NC(=O)c3ncc(C#N)cc3Cl)ccc2F)C1(F)F [Example 22, 3-Chloro-5-cyano-pyridine-2-carboxylic acid [3-((R)-2-amino-5,5-difluoro-4,6,6-trimethyl-5,6-dihydro-4H-[1,3]oxazin-4-yl)-4-fluoro-phenyl]-amide]	
